Measurements published in patent US11813340B2, “PSMA targeted radiohalogenated urea-polyaminocarboxylates for cancer radiotherapy” (The Johns Hopkins University, priority 2018, dated 2023).
Like-named read-outs stand apart in the source and are kept apart here.

Tested on: PSMA+PC3-PIP and PSMA-PC3-flu flank xenografts
Experimental: Final compounds were purified by HPLC. […] Organs were harvested 1, 4, and 24 h post-injection (n=5 per time point).

[1] = 4-hr, Blocker VK-02-90 5.0 nmole
[2] = 4-hr, Blocker YC-I-27 0.5 nmole
[3] = 4-hr, Blocker YC-I-27 1.0 nmole
[4] = 24-hour, Blocker VK-02-90 0.5 nmole
[5] = 24-hour, Blocker VK-02-90 1.0 nmole
[6] = 24-hour, Blocker VK-02-90 5.0 nmole
[7] = 24-hour, Blocker YC-I-27 0.5 nmole
[8] = 24-hour, Blocker YC-I-27 1.0 nmole
[9] = 24-hour, Blocker YC-I-27 5 nmole

O=C([O-])CN1CCN(CC(=O)[O-])CCN(CC(=O)NCCCCC(=O)N(CCCC[C@H](NC(=O)N[C@@H](CCC(=O)O)C(=O)O)C(=O)O)Cc2ccc([125I])cc2)CCN(CC(=O)[O-])CC1.[Lu+3] [[^125I]VK-02-90-Lu]
Biodistribution, Flu tumor [1]: 0.1 ± 0.01 % injected dose/g | Biodistribution, Kidneys [1]: 0.9 ± 0.3 % injected dose/g | Biodistribution, Lacrimal glands [1]: 0.1 ± 0.1 % injected dose/g | Biodistribution, PIP tumor [1]: 18.8 ± 2.0 % injected dose/g | Biodistribution, Salivary glands [1]: 0.05 ± 0.02 % injected dose/g | Biodistribution, Spleen [1]: 0.15 ± 0.08 % injected dose/g | Biodistribution, Stomach [1]: 0.1 ± 0.04 % injected dose/g | Biodistribution, Blood [2]: 0.4 ± 0.06 % injected dose/g | Biodistribution, Flu tumor [2]: 0.3 ± 0.1 % injected dose/g | Biodistribution, Kidneys [2]: 0.9 ± 0.1 % injected dose/g | Biodistribution, Lacrimal glands [2]: 0.2 ± 0.02 % injected dose/g | Biodistribution, PIP tumor [2]: 24.0 ± 3.2 % injected dose/g | Biodistribution, Salivary glands [2]: 3.3 ± 0.8 % injected dose/g | Biodistribution, Spleen [2]: 0.25 ± 0.07 % injected dose/g | Biodistribution, Stomach [2]: 1.3 ± 0.2 % injected dose/g | Biodistribution, Blood [3]: 0.4 ± 0.05 % injected dose/g | Biodistribution, Flu tumor [3]: 0.3 ± 0.1 % injected dose/g | Biodistribution, Kidneys [3]: 0.6 ± 0.03 % injected dose/g | Biodistribution, Lacrimal glands [3]: 0.2 ± 0.03 % injected dose/g | Biodistribution, PIP tumor [3]: 23.8 ± 1.1 % injected dose/g | Biodistribution, Salivary glands [3]: 3.2 ± 0.7 % injected dose/g | Biodistribution, Spleen [3]: 0.2 ± 0.04 % injected dose/g | Biodistribution, Stomach [3]: 1.2 ± 0.2 % injected dose/g | Biodistribution, Blood (4-hr, Blocker YC-I-27 5 nmole): 0.4 ± 0.1 % injected dose/g | Biodistribution, Flu tumor (4-hr, Blocker YC-I-27 5 nmole): 0.3 ± 0.1 % injected dose/g | Biodistribution, Kidneys (4-hr, Blocker YC-I-27 5 nmole): 0.7 ± 0.1 % injected dose/g | Biodistribution, Lacrimal glands (4-hr, Blocker YC-I-27 5 nmole): 0.5 ± 0.5 % injected dose/g | Biodistribution, Salivary glands (4-hr, Blocker YC-I-27 5 nmole): 5.0 ± 1.4 % injected dose/g | Biodistribution, Spleen (4-hr, Blocker YC-I-27 5 nmole): 0.3 ± 0.06 % injected dose/g | Biodistribution, Stomach (4-hr, Blocker YC-I-27 5 nmole): 1.6 ± 0.4 % injected dose/g | Biodistribution, Blood (24-hour, Blocker None): 0 % injected dose/g | Biodistribution, Flu tumor (24-hour, Blocker None): 0.05 ± 0.01 % injected dose/g | Biodistribution, Kidneys (24-hour, Blocker None): 1.3 ± 0.7 % injected dose/g | Biodistribution, Lacrimal glands (24-hour, Blocker None): 0.05 ± 0.04 % injected dose/g | Biodistribution, PIP tumor (24-hour, Blocker None): 18.0 ± 6.0 % injected dose/g | Biodistribution, Salivary glands (24-hour, Blocker None): 0.2 ± 0.08 % injected dose/g | Biodistribution, Spleen (24-hour, Blocker None): 0.1 ± 0.05 % injected dose/g | Biodistribution, Stomach (24-hour, Blocker None): 0.1 ± 0.04 % injected dose/g | Biodistribution, Blood [4]: 0.1 ± 0.01 % injected dose/g | Biodistribution, Flu tumor [4]: 0.04 ± 0.01 % injected dose/g | Biodistribution, Kidneys [4]: 0.5 ± 0.2 % injected dose/g | Biodistribution, Lacrimal glands [4]: 0.03 ± 0.02 % injected dose/g | Biodistribution, PIP tumor [4]: 16.3 ± 4.2 % injected dose/g | Biodistribution, Salivary glands [4]: 0.02 ± 0.01 % injected dose/g | Biodistribution, Spleen [4]: 0.04 ± 0.01 % injected dose/g | Biodistribution, Stomach [4]: 0.04 ± 0.04 % injected dose/g | Biodistribution, Blood [5]: 0 % injected dose/g | Biodistribution, Flu tumor [5]: 0.03 ± 0.01 % injected dose/g | Biodistribution, Kidneys [5]: 0.4 ± 0.1 % injected dose/g | Biodistribution, Lacrimal glands [5]: 0 % injected dose/g | Biodistribution, Salivary glands [5]: 0 % injected dose/g | Biodistribution, Spleen [5]: 0 % injected dose/g | Biodistribution, Stomach [5]: 0.03 ± 0.02 % injected dose/g | Biodistribution, Blood [6]: 0 % injected dose/g | Biodistribution, Flu tumor [6]: 0.02 ± 0.01 % injected dose/g | Biodistribution, Kidneys [6]: 0.2 ± 0.2 % injected dose/g | Biodistribution, Lacrimal glands [6]: 0.01 ± 0.03 % injected dose/g | Biodistribution, Salivary glands [6]: 0.01 ± 0.01 % injected dose/g | Biodistribution, Spleen [6]: 0.01 ± 0.03 % injected dose/g | Biodistribution, Stomach [6]: 0.04 ± 0.03 % injected dose/g | Biodistribution, Blood [7]: 0.03 ± 0.03 % injected dose/g | Biodistribution, Flu tumor [7]: 0.04 ± 0.02 % injected dose/g | Biodistribution, Kidneys [7]: 0.1 ± 0.05 % injected dose/g | Biodistribution, Lacrimal glands [7]: 0.03 ± 0.04 % injected dose/g | Biodistribution, PIP tumor [7]: 13.4 ± 3.8 % injected dose/g | Biodistribution, Salivary glands [7]: 0.6 ± 0.5 % injected dose/g | Biodistribution, Spleen [7]: 0.02 ± 0.02 % injected dose/g | Biodistribution, Stomach [7]: 0.1 ± 0.1 % injected dose/g | Biodistribution, Blood [8]: 0.02 ± 0.01 % injected dose/g | Biodistribution, Flu tumor [8]: 0.03 ± 0.01 % injected dose/g | Biodistribution, Lacrimal glands [8]: 0.02 ± 0.02 % injected dose/g | Biodistribution, Salivary glands [8]: 0.4 ± 0.2 % injected dose/g | Biodistribution, Spleen [8]: 0.04 ± 0.02 % injected dose/g | Biodistribution, Stomach [8]: 0.08 ± 0.03 % injected dose/g | Biodistribution, Blood [9]: 0.02 ± 0.01 % injected dose/g | Biodistribution, Flu tumor [9]: 0.03 ± 0.01 % injected dose/g | Biodistribution, Kidneys [9]: 0.05 ± 0.02 % injected dose/g | Biodistribution, Lacrimal glands [9]: 0.01 ± 0.02 % injected dose/g | Biodistribution, PIP tumor [9]: 6.6 ± 3.2 % injected dose/g | Biodistribution, Salivary glands [9]: 0.4 ± 0.1 % injected dose/g | Biodistribution, Spleen [9]: 0.01 ± 0.03 % injected dose/g | Biodistribution, Stomach [9]: 0.07 ± 0.1 % injected dose/g
